Reference: patent publication US10221125B2, “Solid forms” (Oryzon Genomics, S.A., priority 2015, dated 2019)
Where a name gives a salt, the structure may show the parent alone.

Columns and labels:
Assay type in all cases: physicochemical
[1] = Hygroscopicity (mass increase when relative humidity is raised from 0% rH to 90% rH); conditions: increase in mass
Description: The term “hygroscopicity” describes the ability of a solid material to adsorb moisture. The hygroscopicity of a given API is characterized [European Pharmacopoeia—6th Edition (2008), Chapter 5.11) by the increase in mass when the relative humidity is raised from 0% rH to 90% rH: • non-hygroscopic: weight increase Δm<0.2%; • slightly hygroscopic: weight increase 0.2%≤Δm<2.0%; • hygroscopic: weight increase 2.0%≤Δm<15.0%; • very hygroscopic: weight increase Δm≥15.0%; • a deliquescent: sufficient water is adsorbed to form a liquid.

[2] = Long-term incubation/storage at elevated temperature or elevated humidity (phase change)
[3] = Thermal behaviour on heating/cooling (temperature controlled XRPD)
Description: For temperature controlled XRPD measurements, the sample was placed without further processing (e.g. grinding or sieving) in a quartz glass capillary of 1 mm diameter and sealed. Measurements were performed with a STOE high-/low-temperature extension (temperature range −50° C. to 300° C.) with am NiCr/Ni-thermal element at a ramp rate of 5° C. per minute, temperature steps every 5° C., 30 minutes measuring time per step, […]

[4] = Long term equilibration slurry experiments (polymorph stability)
[5] = Stability of the di-hydrochloric acid salt (decomposition, release of HCl)

N[C@H]1CC[C@H](N[C@@H]2C[C@H]2c2ccccc2)CC1 [Form A, (trans)-N1-((1R,2S)-2-phenylcyclopropyl)cyclohexane-1,4-diamine di-hydrochloride]
hygroscopicity [1]: slightly hygroscopic (slightly hygroscopic: weight increase 0.2%≤Δm<2.0%) | phase change to Form B on long term storage ([2]; increased humidity, e.g. 100% rH): does not induce a phase change to Form B

N[C@H]1CC[C@H](N[C@@H]2C[C@H]2c2ccccc2)CC1 [Form C, (trans)-N1-((1R,2S)-2-phenylcyclopropyl)cyclohexane-1,4-diamine di-hydrochloride]
polymorph stability description [3]: unstable high-temperature polymorph

N[C@H]1CC[C@H](N[C@@H]2C[C@H]2c2ccccc2)CC1 [Form B, (trans)-N1-((1R,2S)-2-phenylcyclopropyl)cyclohexane-1,4-diamine di-hydrochloride]
hygroscopicity [1]: slightly hygroscopic (slightly hygroscopic: weight increase 0.2%≤Δm<2.0%) | stability as compared to Form A [2]: substantially increased | phase change during long-term incubation ([2]; elevated temperature or elevated humidity, even at 100% rH): no phase-change is observed | formation of Form C upon heating ([3]; heating of Form B): cannot be prepared upon heating of Form B | decomposition temperature ([3]; on heating, di-hydrochloride): above 210 °C | polymorph stability ranking [4]: most stable polymorph

N[C@H]1CC[C@H](N[C@@H]2C[C@H]2c2ccccc2)CC1 [(trans)-N1-((1R,2S)-2-phenylcyclopropyl)cyclohexane-1,4-diamine di-hydrochloride]
stability of di-hydrochloric acid salt (decomposition to mono-hydrochloride, release of corrosive hydrochloric acid) [5]: does not decompose and release corrosive hydrochloric acid
